Experimental data published in paper PMC5735376, “Dual Level Statistical Investigation of Equilibrium Solubility in Simulated Fasted and Fed Intestinal Fluid” (Molecular Pharmaceutics, 2017).
Read-outs that look alike come from different tables or passages of the source.

Key:
[1] = Equilibrium solubility in simulated intestinal fluid, dual level DoE, fasted arm; assay type: physicochemical; conditions: for direction of monoglyceride effect on solubility (standardized effect): fasted arm, Figure 3; for statistical significance of DoE factor BS:PL on equilibrium solubility / statistical significance of DoE factor bile salt on equilibrium solubility / statistical significance of DoE factor cholesterol on equilibrium solubility / statistical significance of DoE factor lecithin on equilibrium solubility / statistical significance of DoE factor monoglyceride on equilibrium solubility / statistical significance of DoE factor pH on equilibrium solubility / statistical significance of DoE factor sodium oleate on equilibrium solubility: fasted, current study (Figure 3); for significant DoE factors influencing solubility: fasted and fed study arms together (14 possible values per drug), significance ±4
From the text: (§1) For each media parameter (bile salt, lecithin, sodium oleate, monoglyceride, cholesterol, pH and BS: PL ratio) lower and upper limit concentration values for fasted and fed states were defined, Table 1. Using Minitab 17.2.1 and a custom experimental design, a 1/16 of the full factorial DoE with the seven factors and two levels (lower and upper limits) was constructed (8 experiments around the upper and lower levels plus two center points) separately for the fasted and the fed states. These two tables were then applied as an input for a factorial custom design of experiment which combined the fasted and fed using all 20 data points to provide an overall analysis. The study therefore consists of three arms, two smaller (10 data point) fasted and fed arms, which are then merged into a larger (20 data point) combined arm.
(§2) When designing and analyzing the DoE, only a factor’s main effects and 2 way interactions have been considered and 3 way interactions or more were not included. For each DoE the magnitude for each factor’s effect on equilibrium solubility was determined by the standardized effect value for all of the individual factors and the significant 2-way interactions. This value was used to articulate whether these factors are increasing or decreasing drug solubility.
(§3) The solution was prepared by the addition of an excess amount (above the estimated solubility) of solid for each compound investigated to a centrifuge tube (15 mL Corning Centristar cap, polypropylene RNase/DNase free, nonpyrogenic) followed by the addition of each component of the simulated intestinal fluid media according to the run order generated by the DoE. After all of the media components were added, pH was adjusted to 5, 6, or 7 according to the run order using 0.1 M HCl or 0.1 M KOH and tubes were capped and placed on an orbital shaker (OS 5 basic Yellowline, IKA, Germany) for 1 h after which the pH was readjusted if required. The 20 different tubes were then shaken in a tube rotator for 24 h at 40 rpm at 37 °C to simulate intestinal fluid conditions. After 24 h, a 1 mL amount was taken from each of the 20 tubes and transferred to a 1.5 mL Eppendorf tube then centrifuged at 15 000 rpm for 5 min. Following centrifugation 0.5 mL of the supernatant solution was transferred to an HPLC vial to analyze drug solubility using HPLC (Table 4).

[2] = Equilibrium solubility in simulated intestinal fluid, dual level DoE, fed arm; assay type: physicochemical; conditions: for statistical significance of DoE factor BS:PL on equilibrium solubility / statistical significance of DoE factor bile salt on equilibrium solubility / statistical significance of DoE factor cholesterol on equilibrium solubility / statistical significance of DoE factor lecithin on equilibrium solubility / statistical significance of DoE factor monoglyceride on equilibrium solubility / statistical significance of DoE factor pH on equilibrium solubility / statistical significance of DoE factor sodium oleate on equilibrium solubility: fed, current study (Figure 3)
From the text: as §1, §2, §3

[3] = Equilibrium solubility in simulated intestinal fluid, dual level DoE, combined fasted and fed arm; assay type: physicochemical; conditions: for significance of sodium oleate for solubility: Figure 4, significance ±2, positive solubility impact; for significant two way factor interactions on solubility: eight two way interactions, Figure 4
From the text: as §1, §2, §3

[4] = Statistical comparison of equilibrium solubility data sets (Mann-Whitney test / two-sample t-test); assay type: physicochemical; conditions: for statistical comparison of fasted against fed equilibrium solubility: current dual level DoE, where significant, fasted solubility lower than fed; for statistical comparison of dual level fasted with published fasted equilibrium solubility: current fasted arm vs published fasted DoE; for statistical comparison of dual level fed with published fed equilibrium solubility: current fed arm vs published fed DoE
From the text: The Kolmogorov normality test was used in Minitab to assess the normality distribution of each data set. A Mann–Whitney test was used to evaluate the median between two data sets (not normally distributed) and the two-sample t-test was used to evaluate the mean of two data sets (normally distributed).

[5] = parameters: method as in ref 13, Figure 2; conditions: fasted, published; Figure 2; cited from earlier work
[6] = parameters: method as in ref 14, Figure 2; conditions: fed, published; Figure 2; cited from earlier work
[7] = combined arm, Figure 4, significance ±2

SMILES | statistical significance of DoE factor BS:PL on equilibrium solubility [1] | statistical significance of DoE factor bile salt on equilibrium solubility [1] | statistical significance of DoE factor cholesterol on equilibrium solubility [1] | statistical significance of DoE factor lecithin on equilibrium solubility [1] | statistical significance of DoE factor monoglyceride on equilibrium solubility [1] | statistical significance of DoE factor pH on equilibrium solubility [1] | statistical significance of DoE factor sodium oleate on equilibrium solubility [1] | statistical significance of DoE factor BS:PL on equilibrium solubility [2] | statistical significance of DoE factor bile salt on equilibrium solubility [2] | statistical significance of DoE factor cholesterol on equilibrium solubility [2] | statistical significance of DoE factor lecithin on equilibrium solubility [2] | statistical significance of DoE factor monoglyceride on equilibrium solubility [2] | statistical significance of DoE factor pH on equilibrium solubility [2] | statistical significance of DoE factor sodium oleate on equilibrium solubility [2] | statistical comparison of fasted against fed equilibrium solubility [4] | statistical significance of DoE factor bile salt on equilibrium solubility [5] | statistical significance of DoE factor lecithin on equilibrium solubility [5] | statistical significance of DoE factor pH on equilibrium solubility [5] | statistical significance of DoE factor sodium oleate on equilibrium solubility [5] | statistical significance of DoE factor bile salt on equilibrium solubility [6] | also measured
C[C@@H](O[C@H]1OCCN(Cc2n[nH]c(=O)[nH]2)[C@H]1c1ccc(F)cc1)c1cc(C(F)(F)F)cc(C(F)(F)F)c1 [aprepitant] | NS ^e | NS ^e ^g | NS ^e | S ^d ^g | S ^d | NS ^e ^g | S ^d | NS ^e | NS ^e ^g | NS ^e | NS ^e ^g | NS ^e | NS ^e ^g | NS ^e ^g | no statistically significant difference | S ^d ^g | NS ^e ^g | S ^d ^g | S ^d | S ^d ^g | direction of monoglyceride effect on solubility (standardized effect) [1]: positively impacts; significance of lecithin for solubility [3, 7]: significant; significance of sodium oleate for solubility ([3]; combined arm): significant; statistical comparison of dual level fasted with published fasted equilibrium solubility [4]: significantly different; statistical comparison of dual level fed with published fed equilibrium solubility [4]: significantly different; statistical significance of DoE factor lecithin on equilibrium solubility [6]: S ^d ^g; statistical significance of DoE factor monoglyceride on equilibrium solubility [6]: NS ^e; statistical significance of DoE factor pH on equilibrium solubility [6]: S ^d ^g; statistical significance of DoE factor sodium oleate on equilibrium solubility [6]: S ^d ^g
COc1ccccc1OCCNCC(O)COc1cccc2[nH]c3ccccc3c12 (stereo not drawn) [carvedilol] | NS ^e | NS ^e ^g | NS ^e | NS ^e ^g | NS ^e | NS ^e ^g | NS ^e ^g | NS ^e | NS ^e ^g | NS ^e | NS ^e | NS ^e ^g | NS ^e ^g | NS ^e ^g | significant difference | S ^d ^g | S ^d ^g | S ^d ^g | S ^d ^g | S ^d ^g | significant DoE factors influencing solubility [1]: no significant factors; significance of sodium oleate for solubility ([3]; combined arm): significant; statistical comparison of dual level fed with published fed equilibrium solubility [4]: significantly different; statistical significance of DoE factor lecithin on equilibrium solubility [6]: NS ^e; statistical significance of DoE factor monoglyceride on equilibrium solubility [6]: S ^d ^g; statistical significance of DoE factor pH on equilibrium solubility [6]: S ^d ^g; statistical significance of DoE factor sodium oleate on equilibrium solubility [6]: S ^d ^g
CCOC(=O)C1=C(C)NC(C)=C(C(=O)OC)C1c1cccc(Cl)c1Cl (stereo not drawn) [felodipine] | NS ^e | NS ^e ^g | NS ^e | S ^d | S ^d | S ^d | S ^d | NS ^e | S ^d | NS ^e | S ^d | S ^d ^g | NS ^e ^g | S ^d | significant difference | S ^d ^g | S ^d | S ^d | S ^d | S ^d | significant DoE factors influencing solubility [1]: eight out of a possible 14; direction of monoglyceride effect on solubility (standardized effect) [1]: positive effect; direction of monoglyceride effect on solubility (standardized effect) ([2]; fed arm, Figure 3): positive effect; significance of bile salt for solubility [3, 7]: significant; significance of cholesterol for solubility [3, 7]: significant; statistical comparison of dual level fasted with published fasted equilibrium solubility [4]: significantly different; statistical significance of DoE factor lecithin on equilibrium solubility [6]: S ^d; statistical significance of DoE factor monoglyceride on equilibrium solubility [6]: NS ^e ^g; statistical significance of DoE factor pH on equilibrium solubility [6]: S ^d ^g; statistical significance of DoE factor sodium oleate on equilibrium solubility [6]: S ^d
COc1ccc2c(c1)c(CC(=O)O)c(C)n2C(=O)c1ccc(Cl)cc1 [indomethacin] | NS ^e | NS ^e ^g | NS ^e | NS ^e | NS ^e | S ^d | NS ^e ^g | NS ^e | NS ^e ^g | NS ^e | NS ^e | NS ^e | S ^d | NS ^e ^g | no statistically significant difference | S ^d ^g | NS ^e | S ^d | S ^d ^g | S ^d ^g | significance of pH for solubility [3, 7]: significant; significant two way factor interactions on solubility ([3]; combined arm): no significant interactions; statistical significance of DoE factor lecithin on equilibrium solubility [6]: NS ^e; statistical significance of DoE factor monoglyceride on equilibrium solubility [6]: NS ^e; statistical significance of DoE factor pH on equilibrium solubility [6]: S ^d; statistical significance of DoE factor sodium oleate on equilibrium solubility [6]: S ^d ^g
CC(C)(Sc1cc(C(C)(C)C)c(O)c(C(C)(C)C)c1)Sc1cc(C(C)(C)C)c(O)c(C(C)(C)C)c1 [probucol] | S ^d | NS ^e | NS ^e | NS ^e | NS ^e | NS ^e ^g | S ^d | NS ^e | NS ^e ^g | NS ^e | NS ^e ^g | NS ^e ^g | NS ^e ^g | S ^d ^g | no statistically significant difference | NS ^e | NS ^e | S ^d ^g | S ^d | S ^d ^g | variability of equilibrium solubility ([3]; across DoE media, fasted or fed arm, Figures 1 and 2): large variability; significant two way factor interactions on solubility ([3]; combined arm): significant interactions; statistical comparison of dual level fasted with published fasted equilibrium solubility [4]: significantly different; statistical significance of DoE factor lecithin on equilibrium solubility [6]: S ^d ^g; statistical significance of DoE factor monoglyceride on equilibrium solubility [6]: S ^d ^g; statistical significance of DoE factor pH on equilibrium solubility [6]: S ^d ^g
